Laboratory results: US12077503B2, “Substituted cyclic amides and their use as herbicides” (FMC CORPORATION, priority 2015, dated 2024)

Legend:
Assay type in all cases: in vivo
[1] = test system: Kochia (Kochia scoparia); assay: Test A preemergence; conditions: Bassia scoparia, pre-emergence, 240 h
Method in brief: (§1)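 Each rating is a visual injury score from 0 to 100 given about 10 d after treatment, judged against untreated controls kept alongside in the greenhouse. In loam soil–sand blend, seeds got a preemergence directed soil spray, while postemergence plants were 2 to 10 cm tall at spraying.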

[2] = test system: barnyardgrass (Echinochloa crus-galli); assay: Test A preemergence; conditions: Echinochloa crus-galli, pre-emergence, 240 h
Method in brief: as §1

[3] = test system: giant foxtail (Setaria faberii); assay: Test A preemergence; conditions: Setaria faberi, pre-emergence, 240 h
Method in brief: as §1

[4] = test system: pigweed (Amaranthus retroflexus); assay: Test A preemergence; conditions: Amaranthus retroflexus, pre-emergence, 240 h
[5] = test system: ragweed (common ragweed, Ambrosia elatior); assay: Test A preemergence; conditions: Ambrosia artemisiifolia, pre-emergence, 240 h
Method in brief: as §1

[6] = test system: ryegrass, Italian (Italian ryegrass, Lolium multiflorum); assay: Test A preemergence; conditions: Lolium multiflorum, pre-emergence, 240 h
Method in brief: as §1

[7] = test system: Galium (catchweed bedstraw, Galium aparine); assay: Test A postemergence; conditions: Galium, post-emergence, 240 h, 125 g ai/ha, Postemergence; visual injury after approximately 10 d; 0 to 100 scale where 0 is no effect and 100 is complete control; read-out: Plant response rating, Galium
Method in brief: as §1

[8] = test system: Kochia (Kochia scoparia); assay: Test A postemergence; conditions: Bassia scoparia, post-emergence, 240 h, 125 g ai/ha, Postemergence; visual injury after approximately 10 d; 0 to 100 scale where 0 is no effect and 100 is complete control; read-out: Plant response rating, Kochia
Method in brief: as §1

[9] = test system: barnyardgrass (Echinochloa crus-galli); assay: Test A postemergence; conditions: Echinochloa crus-galli, post-emergence, 240 h, 125 g ai/ha, Postemergence; visual injury after approximately 10 d; 0 to 100 scale where 0 is no effect and 100 is complete control; read-out: Plant response rating, Barnyardgrass
Method in brief: as §1

[10] = test system: blackgrass (Alopecurus myosuroides); assay: Test A postemergence; conditions: Alopecurus myosuroides, post-emergence, 240 h, 125 g ai/ha, Postemergence; visual injury after approximately 10 d; 0 to 100 scale where 0 is no effect and 100 is complete control; read-out: Plant response rating, Blackgrass
Method in brief: as §1

[11] = test system: corn (Zea mays); assay: Test A postemergence; conditions: Zea mays, post-emergence, 240 h, 125 g ai/ha, Postemergence; visual injury after approximately 10 d; 0 to 100 scale where 0 is no effect and 100 is complete control
Method in brief: as §1

[12] = test system: giant foxtail (Setaria faberii); assay: Test A postemergence; conditions: Setaria faberi, post-emergence, 240 h, 125 g ai/ha, Postemergence; visual injury after approximately 10 d; 0 to 100 scale where 0 is no effect and 100 is complete control; read-out: Plant response rating, Foxtail, Giant
Method in brief: as §1

[13] = test system: pigweed (Amaranthus retroflexus); assay: Test A postemergence; conditions: Amaranthus retroflexus, post-emergence, 240 h, 125 g ai/ha, Postemergence; visual injury after approximately 10 d; 0 to 100 scale where 0 is no effect and 100 is complete control; read-out: Plant response rating, Pigweed
Method in brief: as §1

[14] = test system: ragweed (common ragweed, Ambrosia elatior); assay: Test A postemergence; conditions: Ambrosia artemisiifolia, post-emergence, 240 h, 125 g ai/ha, Postemergence; visual injury after approximately 10 d; 0 to 100 scale where 0 is no effect and 100 is complete control; read-out: Plant response rating, Ragweed
Method in brief: as §1

[15] = test system: ryegrass, Italian (Italian ryegrass, Lolium multiflorum); assay: Test A postemergence; conditions: Lolium multiflorum, post-emergence, 240 h, 125 g ai/ha, Postemergence; visual injury after approximately 10 d; 0 to 100 scale where 0 is no effect and 100 is complete control; read-out: Plant response rating, Ryegrass, Italian
Method in brief: as §1

[16] = test system: wheat (Triticum aestivum); assay: Test A postemergence; conditions: Triticum aestivum, post-emergence, 240 h, 125 g ai/ha, Postemergence; visual injury after approximately 10 d; 0 to 100 scale where 0 is no effect and 100 is complete control; read-out: Plant response rating, Wheat
Method in brief: as §1

[17] = test system: barnyardgrass (Echinochloa crus-galli); assay: Test B flooded paddy test; conditions: Echinochloa crus-galli, Flood, 250 g ai/ha; scale of 0 to 100 where 0 is no effect and 100 is complete control; read-out: Barnyardgrass plant response rating
Method in brief: (§2)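 Visual ratings (0 none to 100 complete control) are relative to untreated plants, taken 13–15 d after treatment in a greenhouse. Test material went straight into floodwater standing 3 cm above the soil, kept constant, on plants at the 2-leaf stage.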

[18] = test system: ducksalad (Heteranthera limosa); assay: Test B flooded paddy test; conditions: Heteranthera limosa, Flood, 250 g ai/ha; scale of 0 to 100 where 0 is no effect and 100 is complete control; read-out: Ducksalad plant response rating
Method in brief: as §2

[19] = test system: rice (Oryra sativa); assay: Test B flooded paddy test; conditions: Oryza sativa, Flood, 250 g ai/ha; scale of 0 to 100 where 0 is no effect and 100 is complete control; read-out: Rice plant response rating
Method in brief: as §2

[20] = test system: sedge, umbrella (small-flower umbrella sedge, Cyperus difformis); assay: Test B flooded paddy test; conditions: Cyperus difformis, Flood, 250 g ai/ha; scale of 0 to 100 where 0 is no effect and 100 is complete control; read-out: Sedge, Umbrella plant response rating
Method in brief: as §2

SMILES: CN1C[C@H](c2csc(C(F)(F)F)c2)[C@@H](C(=O)Nc2ccccc2F)C1=O [Compound 958]
- pest or weed control at 125 g/ha ([1]; 125 g ai/ha, Preemergence, visual injury rating after approximately 10 d, read-out: Kochia plant response rating (0 to 100 scale, 0 is no effect, 100 is complete control)): 0%
- pest or weed control at 500 g/ha ([1]; 500 g ai/ha, preemergence, visual injury rating about 10 d after treatment, 0 to 100 scale (0 no effect, 100 complete control), read-out: Kochia plant response rating): 90%
- pest or weed control at 125 g/ha ([2]; 125 g ai/ha, Preemergence, visual injury rating after approximately 10 d, read-out: Barnyardgrass plant response rating (0 to 100 scale, 0 is no effect, 100 is complete control)): 90%
- pest or weed control at 500 g/ha ([2]; 500 g ai/ha, preemergence, visual injury rating about 10 d after treatment, 0 to 100 scale (0 no effect, 100 complete control), read-out: Barnyardgrass plant response rating): 90%
- pest or weed control at 125 g/ha ([3]; 125 g ai/ha, Preemergence, visual injury rating after approximately 10 d, read-out: Foxtail, Giant plant response rating (0 to 100 scale, 0 is no effect, 100 is complete control)): 90%
- pest or weed control at 500 g/ha ([3]; 500 g ai/ha, preemergence, visual injury rating about 10 d after treatment, 0 to 100 scale (0 no effect, 100 complete control), read-out: Foxtail, Giant plant response rating): 90%
- pest or weed control at 125 g/ha ([4]; 125 g ai/ha, Preemergence, visual injury rating after approximately 10 d, read-out: Pigweed plant response rating (0 to 100 scale, 0 is no effect, 100 is complete control)): 0%
- pest or weed control at 500 g/ha ([4]; 500 g ai/ha, preemergence, visual injury rating about 10 d after treatment, 0 to 100 scale (0 no effect, 100 complete control), read-out: Pigweed plant response rating): 30%
- pest or weed control at 125 g/ha ([5]; 125 g ai/ha, Preemergence, visual injury rating after approximately 10 d, read-out: Ragweed plant response rating (0 to 100 scale, 0 is no effect, 100 is complete control)): 20%
- pest or weed control at 500 g/ha ([5]; 500 g ai/ha, preemergence, visual injury rating about 10 d after treatment, 0 to 100 scale (0 no effect, 100 complete control), read-out: Ragweed plant response rating): 60%
- pest or weed control at 125 g/ha ([6]; 125 g ai/ha, Preemergence, visual injury rating after approximately 10 d, read-out: Ryegrass, Italian plant response rating (0 to 100 scale, 0 is no effect, 100 is complete control)): 0%
- pest or weed control at 500 g/ha ([6]; 500 g ai/ha, preemergence, visual injury rating about 10 d after treatment, 0 to 100 scale (0 no effect, 100 complete control), read-out: Ryegrass, Italian plant response rating): 20%
- pest or weed control at 125 g/ha [7]: 30%
- pest or weed control at 125 g/ha [8]: 0%
- pest or weed control at 125 g/ha [9]: 70%
- pest or weed control at 125 g/ha [10]: 30%
- Corn plant response rating (crop injury, 0 = no effect, 100 = complete kill) at 125 g/ha [11]: 0%
- pest or weed control at 125 g/ha [12]: 90%
- pest or weed control at 125 g/ha [13]: 0%
- pest or weed control at 125 g/ha [14]: 0%
- pest or weed control at 125 g/ha [15]: 0%
- plant injury at 125 g/ha [16]: 0%
- pest or weed control at 250 g/ha [17]: 55%
- pest or weed control at 250 g/ha [18]: 100%
- pest or weed control at 250 g/ha [19]: 15%
- pest or weed control at 250 g/ha [20]: 0%
